Test results as given in patent publication US20200281918A1, “CALCIUM RELEASE-ACTIVATED CALCIUM CHANNEL MODULATORS FOR TREATING HEMATOLOGICAL AND SOLID CANCERS” (Rhizen Pharmaceuticals SA, priority 2017, published 2020).

How the values were obtained:
[1] = tested on: normal lung cell line WI-38; assay: Anti-proliferative effect (MTT assay); type: cell-based; conditions: WI-38, MTT, 48-72 hours
Description: (§1) A panel of cancer cell lines representing various different types of cancers were plated in 96-well plates and incubated with desired concentrations of Compound (A) for 48-72 hours. At the end of the incubation period, MTT ((3-(4,5-dimethylthiazol-2-yl)-2,5-diphenyltetrazolium bromide)) was added. The plates were placed on a shaker for 5 minutes to mix the formazan and the optical density at 560 nm was measured using a spectrophotometer. Data were plotted using Graphpad Prism for calculation of the GI50 concentrations.

[2] = tested on: panel of cancer cell lines; assay: Anti-proliferative effect (MTT assay); type: cell-based; conditions: majority of the cell lines tested, 48-72 hours, MTT (FIG. 3)
Description: as §1

NFkB = assay: Western blotting of markers in Jurkat cells; type: cell-based; conditions: 24 hours, 10, 100, 1000 nM (FIG. 4)
Description: (§2) Cell lines were plated in RPMI media at a pre-determined density in a 6-well plate. After overnight incubation, cells were treated with Compound (A) for 24 hours. Cell lysates were analyzed for the expression of markers by Western Blotting. Gapdh, mTOR and S6 were used as a loading control for NFkB, phospho-mTOR, and phospho-S6 respectively. Lanes: A: Blank; B: 10 nM; C: 100 nM; D: 1000 nM.

phospho-mTOR = assay: Western blotting of markers in Jurkat cells; type: cell-based; conditions: 24 hours, 10, 100, 1000 nM (FIG. 4)
Description: as §2

phospho-S6 = assay: Western blotting of markers in Jurkat cells; type: cell-based; conditions: 24 hours, 10, 100, 1000 nM (FIG. 4)
Description: as §2

[3] = Body weight in NCI-H460 xenograft model; type: in vivo, female Balb/c nude mice; conditions: oral 30 mg/kg BID, 15 day period, Balb/c nude mice
Description: (§3) The anti-tumor effect of Compound (A) was determined as a single agent in a NCI-H460 human non-small cell lung cancer xenografts model using female Balb/c nude mice. 10^6 cells were injected into the flank region. A week after tumor cell injection, mice either received the vehicle, oral administration of Compound (A) at 30 mg/kg BID or intravenous administration of taxol at 10 mg/kg Q3D (every three days) across a 15 day period. At the end of the study period, animals were sacrificed and the tumors harvested.

A549 cells [4] = assay: Induction of Caspase 3 (Millipore Caspase-3 kit, fluorimetric); type: cell-based; conditions: 48 hours, 10-10,000 nM (FIG. 1)
Description: (§4) NCH-H460, A549 and NCI-H1975 cells were incubated with desired concentrations of the test compound for 48 hours. An equal number of cells per well (0.3×10^6 cells) were used. The increase in apoptosis manifested by an elevation in caspase-3 levels was determined using a Caspase-3 kit from Millipore. Induction of Caspase 3 by Compound (A) was measured fluorimetrically.

NCH-H460 cells = assay: as above; type: cell-based; conditions: 48 hours, 10-10,000 nM (FIG. 1)
Description: as §4

NCI-H1975 cells = assay: as above; type: cell-based; conditions: 48 hours, 10-10,000 nM (FIG. 1)
Description: as §4

A549 cells [5] = assay: Scratch-wound migration assay; type: cell-based; conditions: 10% FBS, 72 hours, 10-10,000 nM (FIG. 2)
Description: A scratch was made to a serum-starved monolayer of A549 cells followed by washing and incubation with a desired concentration of Compound (A) in media with 10% fetal bovine serum (FBS) for 72 hours. The distance between the two edges of the wound was measured and percent inhibition was calculated with respect to a control.

[6] = tested on: NCI-H460 human non-small cell lung tumor xenografts; assay: NCI-H460 human non-small cell lung cancer xenograft model; type: in vivo, female Balb/c nude mice
Description: as §3

DOHH-2 = assay: Apoptosis (activated caspase-3 antibody) panel; type: cell-based
Description: (§5) An antibody to activated caspase-3 was used to label cells from early to late stage apoptosis. The concentration of Compound (A) that caused a 2-fold induction in the caspase-3 signal was determined, indicating a significant apoptosis induction.

SW1088 = assay: Apoptosis (activated caspase-3 antibody) panel; type: cell-based
Description: as §5

SK-BR-3 = assay: Apoptosis (activated caspase-3 antibody) panel; type: cell-based
Description: as §5

RKOE6 = assay: Apoptosis (activated caspase-3 antibody) panel; type: cell-based
Description: as §5

U266B1 = assay: Apoptosis (activated caspase-3 antibody) panel; type: cell-based
Description: as §5

AsPC-1 = assay: Apoptosis (activated caspase-3 antibody) panel; type: cell-based
Description: as §5

PANC-1 = assay: Apoptosis (activated caspase-3 antibody) panel; type: cell-based
Description: as §5

ACHN = assay: Apoptosis (activated caspase-3 antibody) panel; type: cell-based
Description: as §5

ARH-77 = assay: Apoptosis (activated caspase-3 antibody) panel; type: cell-based
Description: as §5

MDA MB 468 = assay: Apoptosis (activated caspase-3 antibody) panel; type: cell-based
Description: as §5

SH-4 = assay: Apoptosis (activated caspase-3 antibody) panel; type: cell-based
Description: as §5

RD = assay: Apoptosis (activated caspase-3 antibody) panel; type: cell-based
Description: as §5

DB = assay: Apoptosis (activated caspase-3 antibody) panel; type: cell-based
Description: as §5

AGS = assay: Apoptosis (activated caspase-3 antibody) panel; type: cell-based
Description: as §5

A427 = assay: Apoptosis (activated caspase-3 antibody) panel; type: cell-based
Description: as §5

C32 = assay: Apoptosis (activated caspase-3 antibody) panel; type: cell-based
Description: as §5

HCT-116 = assay: Apoptosis (activated caspase-3 antibody) panel; type: cell-based
Description: as §5

Calu6 = assay: Apoptosis (activated caspase-3 antibody) panel; type: cell-based
Description: as §5

MDA MB 231 = assay: Apoptosis (activated caspase-3 antibody) panel; type: cell-based
Description: as §5

769-P = assay: Apoptosis (activated caspase-3 antibody) panel; type: cell-based
Description: as §5

Hs 578T = assay: Apoptosis (activated caspase-3 antibody) panel; type: cell-based
Description: as §5

SKO-007 = assay: Apoptosis (activated caspase-3 antibody) panel; type: cell-based
Description: as §5

Wi38 = assay: Apoptosis (activated caspase-3 antibody) panel; type: cell-based
Description: as §5

NCI-H661 = assay: Apoptosis (activated caspase-3 antibody) panel; type: cell-based
Description: as §5

A7 = assay: Apoptosis (activated caspase-3 antibody) panel; type: cell-based
Description: as §5

786-O = assay: Apoptosis (activated caspase-3 antibody) panel; type: cell-based
Description: as §5

G-402 = assay: Apoptosis (activated caspase-3 antibody) panel; type: cell-based
Description: as §5

T98G = assay: Apoptosis (activated caspase-3 antibody) panel; type: cell-based
Description: as §5

PC-3 = assay: Apoptosis (activated caspase-3 antibody) panel; type: cell-based
Description: as §5

RKO-AS45-1 = assay: Apoptosis (activated caspase-3 antibody) panel; type: cell-based
Description: as §5

[7] = concentration causing 2-fold induction in caspase-3 signal

SMILES: O=C(Cc1ccc2ncccc2c1)Nc1ccc(-n2nc(C3CC3)cc2C2CC2)cc1 [Compound (A), N-(4-(3,5-dicyclopropyl-1H-pyrazol-1-yl)phenyl)-2-(quinolin-6-yl)acetamide]
- growth of normal lung cell line WI-38 [1]: did not affect growth
- GI50 [2]: 300 to 3000 nM
- NFkB expression (Western blot) (NFkB): dose-dependent reduction
- phospho-mTOR expression (Western blot) (phospho-mTOR): dose-dependent reduction
- phospho-S6 expression (Western blot) (phospho-S6): dose-dependent reduction
- mice body weight [3]: did not affect the mice body weight
- caspase-3 induction (A549 cells [4]): dose-dependent increase
- caspase-3 induction (NCH-H460 cells): dose-dependent increase
- caspase-3 induction (NCI-H1975 cells): dose-dependent increase
- FBS induced migration of A549 cells (A549 cells [5]): dose-dependent reduction
- tumor growth inhibition (TGI) value ([6]; day 15, oral 30 mg/kg BID): 38.3%
- inhibition of tumor growth ([6]; oral 30 mg/kg BID, 15 day period): significant inhibition of tumor growth
- Apoptosis Emax (DOHH-2): 6.13
- G1/S cell cycle block (DOHH-2): 3.23 µM
- Apoptosis 2 Fold Induction (DOHH-2; [7]): 3.03 µM
- Apoptosis Emax (SW1088): 8.54
- G1/S cell cycle block (SW1088): 33 µM
- Apoptosis 2 Fold Induction (SW1088; [7]): 75.51 µM
- Apoptosis Emax (SK-BR-3): 8.32
- G1/S cell cycle block (SK-BR-3): 6.11 µM
- Apoptosis 2 Fold Induction (SK-BR-3; [7]): 11.6 µM
- Apoptosis Emax (RKOE6): 14.43
- G1/S cell cycle block (RKOE6): 4.85 µM
- Apoptosis 2 Fold Induction (RKOE6; [7]): 4.64 µM
- Apoptosis Emax (U266B1): 4.88
- G1/S cell cycle block (U266B1): 3.56 µM
- Apoptosis 2 Fold Induction (U266B1; [7]): 11.11 µM
- Apoptosis Emax (AsPC-1): 2.07
- G1/S cell cycle block (AsPC-1): 3.64 µM
- Apoptosis Emax (PANC-1): 11.49
- G1/S cell cycle block (PANC-1): 7.32 µM
- Apoptosis 2 Fold Induction (PANC-1; [7]): 8.83 µM
- Apoptosis Emax (ACHN): 2.86
- G1/S cell cycle block (ACHN): 10.3 µM
- Apoptosis 2 Fold Induction (ACHN; [7]): 11.23 µM
- Apoptosis Emax (ARH-77): 5.36
- G1/S cell cycle block (ARH-77): 7.02 µM
- Apoptosis 2 Fold Induction (ARH-77; [7]): 30.74 µM
- Apoptosis Emax (MDA MB 468): 8.86
- G1/S cell cycle block (MDA MB 468): 7.81 µM
- Apoptosis 2 Fold Induction (MDA MB 468; [7]): 3.02 µM
- Apoptosis Emax (SH-4): 72.67
- G1/S cell cycle block (SH-4): 16.6 µM
- Apoptosis 2 Fold Induction (SH-4; [7]): 15.59 µM
- Apoptosis Emax (RD): 3.03
- G1/S cell cycle block (RD): 7.08 µM
- Apoptosis 2 Fold Induction (RD; [7]): 11.45 µM
- Apoptosis Emax (DB): 16.8
- G1/S cell cycle block (DB): 7.03 µM
- Apoptosis 2 Fold Induction (DB; [7]): 4.08 µM
- Apoptosis Emax (AGS): 26.62
- G1/S cell cycle block (AGS): 3.16 µM
- Apoptosis 2 Fold Induction (AGS; [7]): 5.04 µM
- Apoptosis Emax (A427): 16.1
- G1/S cell cycle block (A427): 3.52 µM
- Apoptosis 2 Fold Induction (A427; [7]): 2.77 µM
- Apoptosis Emax (C32): 4.7
- G1/S cell cycle block (C32): 10.7 µM
- Apoptosis 2 Fold Induction (C32; [7]): 80.52 µM
- Apoptosis Emax (HCT-116): 20.36
- G1/S cell cycle block (HCT-116): 1.89 µM
- Apoptosis 2 Fold Induction (HCT-116; [7]): 2.97 µM
- Apoptosis Emax (Calu6): 3.34
- G1/S cell cycle block (Calu6): 10.5 µM
- Apoptosis 2 Fold Induction (Calu6; [7]): 3.73 µM
- Apoptosis Emax (MDA MB 231): 4.35
- Apoptosis 2 Fold Induction (MDA MB 231; [7]): 18.4 µM
- Apoptosis Emax (769-P): 10.3
- G1/S cell cycle block (769-P): 4.82 µM
- Apoptosis 2 Fold Induction (769-P; [7]): 24.71 µM
- Apoptosis Emax (Hs 578T): 1.19
- G1/S cell cycle block (Hs 578T): 4.56 µM
- Apoptosis Emax (SKO-007): 15.45
- G1/S cell cycle block (SKO-007): 5.2 µM
- Apoptosis 2 Fold Induction (SKO-007; [7]): 6.42 µM
- Apoptosis Emax (Wi38): 0.49
- G1/S cell cycle block (Wi38): 8.82 µM
- Apoptosis Emax (NCI-H661): 13.23
- G1/S cell cycle block (NCI-H661): 2.8 µM
- Apoptosis 2 Fold Induction (NCI-H661; [7]): 17.64 µM
- Apoptosis Emax (A7): 55.74
- G1/S cell cycle block (A7): 2.78 µM
- Apoptosis 2 Fold Induction (A7; [7]): 2.22 µM
- Apoptosis Emax (786-O): 4.67
- G1/S cell cycle block (786-O): 4.4 µM
- Apoptosis 2 Fold Induction (786-O; [7]): 10.31 µM
- Apoptosis Emax (G-402): 5.14
- G1/S cell cycle block (G-402): 3.74 µM
- Apoptosis 2 Fold Induction (G-402; [7]): 3.11 µM
- Apoptosis Emax (T98G): 21.74
- G1/S cell cycle block (T98G): 41.3 µM
- Apoptosis 2 Fold Induction (T98G; [7]): 53.96 µM
- Apoptosis Emax (PC-3): 12.31
- G1/S cell cycle block (PC-3): 8.13 µM
- Apoptosis 2 Fold Induction (PC-3; [7]): 2.05 µM
- Apoptosis Emax (RKO-AS45-1): 40.99
- G1/S cell cycle block (RKO-AS45-1): 3.94 µM
- Apoptosis 2 Fold Induction (RKO-AS45-1; [7]): 3.15 µM

SMILES: CC(=O)O[C@H]1C(=O)[C@@]2(C)[C@H]([C@H](OC(=O)c3ccccc3)[C@]3(O)C[C@H](OC(=O)[C@H](O)[C@@H](NC(=O)c4ccccc4)c4ccccc4)C(C)=C1C3(C)C)[C@]1(OC(C)=O)CO[C@@H]1C[C@@H]2O [taxol, reference compound]
- tumor growth inhibition (TGI) value ([6]; day 15, intravenous 10 mg/kg Q3D): 36.7%
